PubChem BioAssay AID1159585 (Gregory J. Crowther, 2016)

Molecular target: Calcium-dependent protein kinase 1 (Plasmodium falciparum (isolate 3D7)) (UniProt P62344)
Experiment: PfCDPK1 kinase inhibitors, biochemical, TCAMS library (AID 1159585);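 further: inhibitors leave more ATP so luminescence rises with inhibition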
Conditions: recombinant PfCDPK1, Kinase-Glo ATP depletion luminescence

Chain of Calcium-dependent protein kinase 1 (Plasmodium falciparum (isolate 3D7)) (P62344 whole entry, looked up): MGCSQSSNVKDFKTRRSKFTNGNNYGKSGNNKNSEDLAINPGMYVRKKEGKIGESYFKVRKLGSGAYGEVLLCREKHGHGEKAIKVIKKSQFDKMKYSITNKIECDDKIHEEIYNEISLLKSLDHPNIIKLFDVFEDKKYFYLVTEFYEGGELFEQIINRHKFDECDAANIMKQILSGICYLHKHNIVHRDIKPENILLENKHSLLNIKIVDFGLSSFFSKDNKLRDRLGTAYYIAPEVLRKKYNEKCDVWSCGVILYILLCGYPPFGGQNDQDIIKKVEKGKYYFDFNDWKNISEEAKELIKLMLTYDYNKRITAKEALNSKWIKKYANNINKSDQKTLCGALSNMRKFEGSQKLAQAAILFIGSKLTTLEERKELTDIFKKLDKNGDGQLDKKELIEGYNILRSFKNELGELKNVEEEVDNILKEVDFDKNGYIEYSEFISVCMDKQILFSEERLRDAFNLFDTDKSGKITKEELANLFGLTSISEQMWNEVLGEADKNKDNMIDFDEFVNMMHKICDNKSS

| Structure (SMILES) | IC50 |
| --- | --- |
| Nc1ncnc2occ(-c3ccc(NC(=O)Nc4cc(C(F)(F)F)ccc4F)cc3)c12 | 165 nM |
| COc1ccc(-c2cnc3ccc(NCCCO)nn23)cc1OC | 361 nM |
| Oc1cccc(Nc2ccnc3cc(-c4nccs4)ccc23)c1 | 997 nM |
| CN1CCN(Cc2cccc(Nc3nccc(Nc4ccc(Oc5ccccc5)cc4)n3)c2)CC1 | 801 nM |
| Cc1ccc(Nc2ccnc(Nc3ccc4c(c3)CS(=O)(=O)C4)n2)cc1O | 416 nM |
| CN(C(=O)c1cc2c(-c3cncnc3)cccc2[nH]1)c1ccccc1 | 271 nM |
| Cc1cc(Nc2ncc(Cl)c(Nc3ccccc3C(N)=O)n2)n[nH]1 | 76 nM |
| CNC(=O)c1ccccc1Nc1nc(Nc2ccc(N3CCOCC3)cc2)ncc1Cl | 144 nM |
| CCn1c(-c2nonc2N)nc2c(-c3cccc(NC(=O)Nc4cccc(C(F)(F)F)c4)c3)ncc(OCCCN)c21 | 15 nM |
| Oc1cc(-c2nc(C3(CNCc4ccc(Cl)cc4)CCCCC3)[nH]c2-c2ccncc2)ccc1Cl | 846 nM |
| COc1cc(Nc2nccc(-c3c(-c4cccc(NC(=O)c5c(F)cccc5F)c4)nn4ccccc34)n2)cc(OC)c1OC | 60 nM |
| CCn1c(-c2nonc2N)nc2c(-c3ccccc3)ncc(OCCCNCCCN3CCOCC3)c21 | 42 nM |
| NS(=O)(=O)c1ccc(Nc2nccc(-c3c(-c4cccc(NC(=O)c5c(F)cccc5F)c4)nn4ccccc34)n2)cc1 | 48 nM |
| Nc1ncc(-c2cn[nH]c2)cc1-c1nc2ccc(F)cc2[nH]1 | 150 nM |
| Oc1cccc(Nc2ccnc3cc(-c4ccncc4)ccc23)c1 | 884 nM |
| CC(C)(CN)c1nc(-c2ccc(Br)c(O)c2)c(-c2ccncc2)[nH]1 | 19 nM |
| CCn1c(-c2nonc2N)nc2c(-c3cccc(NC(=O)Nc4cccc(C#N)c4)c3)ncc(OCCCN)c21 | 182 nM |
| CN(C)CCN(C)Cc1ccc(-c2ccc3c(Nc4ccc(Oc5ccccc5)cc4)ccnc3c2)o1 | 718 nM |
| NS(=O)(=O)c1cccc(Nc2nccc(-c3c(-c4cccc(NC(=O)c5c(F)cccc5F)c4)nn4ccccc34)n2)c1 | 20 nM |
| O=C(NCC(c1ccc(C(F)(F)F)cc1)N1CCCC1)c1cc(-c2ccncc2)c(-c2cccc(O)c2)o1 (stereo not drawn) | 283 nM |
| CCn1c(-c2nonc2N)nc2c(-c3cccc(NC(=O)Nc4ccc(C#N)cc4)c3)ncc(OCCCN)c21 | 235 nM |
| c1cncc(Oc2ccc(Nc3ccnc4cc(-c5cccc(CNCCN6CCOCC6)c5)ccc34)cc2)c1 | 705 nM |

| Structure (SMILES) | IC50 |
| --- | --- |
| O=C(NCCCN1CCCCC1)c1ccc(Nc2nccc(Nc3ccc(Oc4ccccc4)cc3)n2)cc1 | 94 nM |
| CC(C)(CNC(=O)C1CCN(CCOc2ccc(F)c(F)c2)CC1)c1nc(-c2ccc(Cl)c(O)c2)c(-c2ccncc2)[nH]1 | 664 nM |
| O=C(NC1CC1)c1ccc(Nc2nccc(-c3c(-c4cccc(NC(=O)c5c(F)cccc5F)c4)nn4ccccc34)n2)cc1 | 26 nM |
| NCCNS(=O)(=O)c1ccc(-c2ccnc3[nH]c(-c4ccncc4)cc23)cc1 | 422 nM |
| CN1CCN(c2ccc(Nc3ncc(C#N)c(Nc4ccccc4C(N)=O)n3)cc2)CC1 | 12 nM |
| COc1ccc(Nc2ncc3c(-c4cccc(NC(=O)Cc5cccc(O)c5)c4)c[nH]c3n2)cc1OC | 312 nM |
| O=c1[nH]ccc2nc(N[C@@H]3CCCNC3)nc(Nc3ccc(S(=O)(=O)N4CCOCC4)cc3)c12 | 146 nM |
| CN(C)CCNCc1ccc(-c2ccc3c(Nc4ccc(Oc5ccccc5)cc4)ccnc3c2)o1 | 681 nM |
| Nc1ncc(-c2cn[nH]c2)cc1-c1nc2ncc(Cl)cc2[nH]1 | 280 nM |
| Cc1ccc(Nc2nccc(N(C)c3ccc4c(c3)nc(NC(=O)Cc3ccc(Cl)c(Cl)c3)n4C)n2)cc1S(N)(=O)=O | 345 nM |
| CNC(=O)c1ccccc1Nc1nc(Nc2ccc(C(=O)O)cc2)ncc1Cl | 246 nM |
| CN1CCN(CCCNCc2ccc(Nc3nccc(Nc4ccc(Oc5ccccc5)cc4)n3)cc2)CC1 | 139 nM |
| CS(=O)(=O)Cc1ccc(Nc2nccc(N3CCCc4cc(NC(=O)Nc5cccc(C(F)(F)F)c5)ccc43)n2)cc1 | 145 nM |
| NC[C@H](CC1CCCCC1)NC(=O)c1ccc(-c2ccnc3[nH]ccc23)s1 | 492 nM |
| CN(C)CCNCc1nc(-c2ccc3c(Nc4ccc(Oc5ccccc5)cc4)ccnc3c2)cs1 | 887 nM |
| O=S1(=O)NCc2ccc(Nc3nccc(Nc4ccc5c(cnn5Cc5ccccc5)c4)n3)cc21 | 110 nM |
| COc1ccc(Nc2ncc(C#N)c(Nc3ccccc3C(N)=O)n2)cc1N1CCN(C)CC1 | 89 nM |
| CNC(=O)c1ccccc1Nc1nc(Nc2ccc(N3CCN(C)CC3)nc2)ncc1C | 45 nM |
| NCC(NC(=O)c1ccc(-c2c[nH]c3ncccc23)s1)c1ccccc1 (stereo not drawn) | 29 nM |
| c1ccc(Oc2ccc(Nc3ccnc4cc(-c5ccc(CNCCN6CCOCC6)o5)ccc34)cc2)cc1 | 435 nM |
| CN1CCN(Cc2cccc(-c3ccc4c(Nc5cc(O)c(Cl)cc5F)ccnc4c3)c2)CC1 | 762 nM |
